Laboratory results as given in patent US20150366252A1, “SWEETENER ENHANCERS AND METHODS FOR USING THE SAME” (International Flavors & Fragrances Inc., priority 2014, published 2015).

Tested on: human panelists (sweet taste of glucose)
Test: Glucose enhancement test: paired-comparison human panelist taste test
Assay type: in vivo
Details: for glucose concentration perceived by panelists as equally sweet (as sweet as): composition of 7% glucose + 8 ppm compound; for glucose enhancement effects (overall statement): human panelist taste test, 7% glucose + 8 ppm compound
Procedure: Compounds 1-3 were tested for glucose sweetness enhancement by human panelist taste tests. Test samples containing the compound of interest were tasted in pairs by the panelist to determine which of the samples were sweeter. Binominal distribution for two-sided pair comparisons were used to determine the probability of the correct number of responses at α=0.05 (95% confidence level).

[1] = 7% glucose + 8 ppm compound vs 8.5% glucose
[2] = 7% glucose + 8 ppm compound vs 8.5% glucose, 12 panelists × 2 reps

SMILES: NC1=NS(=O)(=O)Nc2cccc(OCC3(C(=O)NC4CCCCC4)CCCNC3=O)c21 (stereo not shown) [Compound 3, 3-(((4-amino-2,2-dioxido-1H-benzo[c][1,2,6]thiadiazin-5-yl)oxy)methyl)-N-cyclohexyl-2-oxopiperidine-3-carboxamide]
- sweetness perceived by panelists relative to 8.5% glucose [1]: significantly sweeter
- Total (sample selected as sweeter by panelists) [2]: 21
- Total (sample selected as sweeter by panelists) (7% glucose + 8 ppm compound vs 9% glucose, 12 panelists × 2 reps): 14
- glucose concentration perceived by panelists as equally sweet (as sweet as): 9 % glucose

SMILES: NC1=NS(=O)(=O)Nc2cccc(OCC3(C(=O)NC4CCCC4)CCCNC3=O)c21 (stereo not shown) [Compound 1, 3-(((4-Amino-2,2-dioxido-1H-benzo[c][1,2,6]thiadiazin-5-yl)oxy)methyl)-N-cyclopentyl-2-oxopiperidine-3-carboxamide]
- sweetness perceived by panelists relative to 8.5% glucose [1]: significantly sweeter
- Total (sample selected as sweeter by panelists) (7% glucose + 8 ppm compound vs 9.5% glucose, paired comparison): 17
- Total (sample selected as sweeter by panelists) (7% glucose + 8 ppm compound vs 10% glucose, paired comparison): 11
- Total (sample selected as sweeter by panelists) (7% glucose + 8 ppm compound vs 10.5% glucose, paired comparison): 6
- glucose concentration perceived by panelists as equally sweet (as sweet as): 10 % glucose

SMILES: CCCNC(=O)C(C)(C)COc1cccc2c1C(N)=NS(=O)(=O)N2 [FEMA 4701, reference compound]
- Total (sample selected as sweeter by panelists) (7% glucose + 8 ppm compound vs 8% glucose, 12 panelists × 2 reps): 13
- sweetness perceived by panelists relative to 8.5% glucose [1]: significantly less sweet
- Total (sample selected as sweeter by panelists) [2]: 21
- glucose concentration perceived by panelists as equally sweet (as sweet as): 8 % glucose
- glucose enhancement effects (overall statement): only showed marginal glucose enhancement effects

SMILES: CC(C)NC(=O)C1(COc2cccc3c2C(N)=NS(=O)(=O)N3)CCCNC1=O (stereo not shown) [Compound 2, 3-(((4-amino-2,2-dioxido-1H-benzo-[c][1,2,6]thiadiazin-5-yl)oxy)methyl)-N-isopropyl-2-oxopiperidine-3-carboxamide]
- sweetness perceived by panelists relative to 8.5% glucose [1]: significantly sweeter
- Total (sample selected as sweeter by panelists) [2]: 23

SMILES: Cc1nc2cccc(OCC(C)(C)C(=O)NC(C)C)c2c(N)c1C(=O)O [FEMA 4774, reference compound]
- sweetness perceived by panelists relative to 7% glucose (7% glucose + 8 ppm compound vs 7% glucose): only being directionally sweeter
- Total (sample selected as sweeter by panelists) (7% glucose + 8 ppm compound vs 7% glucose, 12 panelists × 2 reps): 17
- glucose enhancement effects (overall statement): did not show significant glucose enhancement effects
